Measured values taken from US8487113B2, “Method for the preparation of tizanidine hydrochloride” (Farmak, A.S., priority 2008, dated 2013).
Counter-ions that a name gives are not always drawn.

Columns and labels:
[1] = per 1 g of substance, crystallization as in U.S. Pat. No. 3,843,668
[2] = per 1 g of substance, crystallization as in EP 644 192

volume of methanol needed for dissolution of 1 g [1] | volume of ethanol needed for dissolution of 1 g [2] | SMILES
at least 37 ml |  | Clc1ccc2nsnc2c1NC1=NCCN1 [tizanidine base, 5-chloro-4-(2-imidazolin-2-yl-amino)-2,1,3-benzothiadiazole]
 | at least 43 ml | Clc1ccc2nsnc2c1NC1=NCCN1 [tizanidine hydrochloride]
